Experimental data as given in patent US7297551B2, “Recombinant proteins and peptides for endotoxin biosensors, endotoxin removal, and anti-microbial and anti-endotoxin therapeutics” (priority 1998, dated 2007).
pKd: −log10 of the molar value.

What was measured:
[1] = biological target: T1, rFCEE (truncated C. rotundicauda Factor C, CrFC21EE, amino acids 1-766, from P. pastoris) (Carcinoscorpius rotundicauda, UniProt Q26422); assay: Modified Western blot of LPS/lipid A; format: binding; settings: compared with rFC
T1 construct: Pichia pastoris, Biomax-50 enriched
T1 sequence (Q26422 1-766): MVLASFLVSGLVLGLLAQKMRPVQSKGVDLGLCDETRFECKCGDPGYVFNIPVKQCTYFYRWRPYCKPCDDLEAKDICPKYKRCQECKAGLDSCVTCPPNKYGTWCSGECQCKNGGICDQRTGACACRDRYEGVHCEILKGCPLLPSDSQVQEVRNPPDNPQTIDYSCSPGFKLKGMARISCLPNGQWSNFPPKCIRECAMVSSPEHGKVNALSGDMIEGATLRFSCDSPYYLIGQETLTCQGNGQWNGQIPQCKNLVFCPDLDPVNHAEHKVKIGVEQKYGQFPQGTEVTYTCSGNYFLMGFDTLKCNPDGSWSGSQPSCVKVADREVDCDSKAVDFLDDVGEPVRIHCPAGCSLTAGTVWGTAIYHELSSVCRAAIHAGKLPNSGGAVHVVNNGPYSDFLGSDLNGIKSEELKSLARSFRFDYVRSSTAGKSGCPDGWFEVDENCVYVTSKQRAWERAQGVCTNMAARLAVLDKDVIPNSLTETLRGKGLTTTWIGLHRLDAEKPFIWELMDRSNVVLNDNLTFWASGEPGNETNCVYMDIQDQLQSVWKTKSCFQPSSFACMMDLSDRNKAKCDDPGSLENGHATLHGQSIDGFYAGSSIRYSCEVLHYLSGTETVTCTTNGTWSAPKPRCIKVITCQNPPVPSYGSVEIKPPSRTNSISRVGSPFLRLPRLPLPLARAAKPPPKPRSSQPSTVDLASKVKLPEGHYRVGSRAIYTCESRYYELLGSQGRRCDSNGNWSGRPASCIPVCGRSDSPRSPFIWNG
Description: LPS from E. coli 055:B5 (Sigma) was reconstituted to 2 μg/μl, and diphosphoryl lipid A from E. coli K12, D31m4 LPS (List Biologicals, Inc., USA) was made up to 1 μg/μl. The LPS-binding assay was based on modifications of earlier described protocols (45,61). Briefly, 10 μg aliquots of LPS/lipid A were electrophoresed on a denaturing 15% SDS-polyacrylamide gel and electroblotted onto Immobilon™ PVDF membrane. The membrane was cut into strips and each LPS/lipid A strip was subsequently incubated with 300 μg of proteins containing rFC. Detection of rFC binding to lipid A was accomplished by incubation with anti-Factor C antibody followed by alkaline phosphatase-conjugated secondary goat anti-rabbit antibody (Dako) and BCIP/NBT colorimetric substrate (Moss, Inc., USA).

[2] = biological target: BPI pep85-99 (15 mer); settings: de Haas et al., 1998; ligand cell empty; read-out: Equilibrium constant; cited from earlier work

For lipid A, the “binding to lipid A moiety of LPS” value [1] is listed as “less strongly” and the pKd [2] is listed as 5.75.
